Results as given in patent US20250019374A1, “PROTEIN TYROSINE PHOSPHATASE INHIBITORS AND METHODS OF USE THEREOF” (Calico Life Sciences LLC, priority 2021, published 2025).
Like-named read-outs stand apart in the source and are kept apart here.

Columns and labels:
[1] = molecular target: His tagged full-length PTPN1 protein (Homo sapiens (Human), UniProt P18031); assay: PTPN1 Mobility Shift Assay (MSA); format: biochemical; settings: enzyme 0.5 nM, substrate 2 μM
Outline: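 Enzyme at 0.5 nM was preincubated with compound (12-point, 1:3 dilution) for 10 min at room temperature in pH 7.5 HEPES buffer with EDTA, EGTA and DTT. OG488-labelled phosphorylated insulin-receptor peptide at 2 µM was then added for 10 min. After quench, % substrate dephosphorylation was read by mobility shift, and IC50 came from % inhibition.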

[2] = molecular target: His tagged PTPN2 (TC45) protein (Homo sapiens (Human), UniProt P17706); assay: PTPN2 Mobility Shift Assay (MSA); format: biochemical; settings: for Dihydrobenzofuran or Indoline x-fold>potency biochemical: x-fold versus corresponding chromane comparator, PTPN2 MSA
Outline: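 His-tagged human PTPN2 (TC45), 0.5 nM, preincubated with compound (12-point, 1:3) 10 min at room temperature in HEPES pH 7.5 buffer with EDTA, EGTA, DTT. Dephosphorylation of 2 μM fluorescent phospho-insulin-receptor peptide over 10 min read by mobility shift; IC50 from % inhibition.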

[3] = system: IFNγ-induced STAT1 phosphorylation (pSTAT1) in B16F10 cells; assay: B16F10 Phospho-STAT1 HTRF proximal pharmacodynamic (PD) assay; format: cell-based, murine; settings: for EC50: B16-F10, B16F10 cells; for Dihydrobenzofuran or Indoline x-fold>potency cellular: x-fold versus corresponding chromane comparator, B16F10 pSTAT1
Outline: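 B16F10 cells in phenol red-free DMEM/10% FBS were dosed for 3 h at 37 °C in a 10-point, 3-fold series from 50 μM, then stimulated with 100 nM mouse IFNγ for 10 min and stopped with 3.3 μM staurosporine. pSTAT1 in lysates was measured by HTRF (665 nm emission), and EC50s were fitted from dose-response curves.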

[4] = Table 3, dihydrobenzofuran or indoline compound (X = O or NH)
[5] = 3 hours compound, 100 nM mouse IFNγ 10 minutes, read-out: B16F10 IFNγ Induced pSTAT1 EC50
[6] = Mus musculus, Table 3, dihydrobenzofuran or indoline compound (X = O or NH), read-out: pSTAT1 EC50

Sequence of His tagged full-length PTPN1 protein (P18031 whole entry): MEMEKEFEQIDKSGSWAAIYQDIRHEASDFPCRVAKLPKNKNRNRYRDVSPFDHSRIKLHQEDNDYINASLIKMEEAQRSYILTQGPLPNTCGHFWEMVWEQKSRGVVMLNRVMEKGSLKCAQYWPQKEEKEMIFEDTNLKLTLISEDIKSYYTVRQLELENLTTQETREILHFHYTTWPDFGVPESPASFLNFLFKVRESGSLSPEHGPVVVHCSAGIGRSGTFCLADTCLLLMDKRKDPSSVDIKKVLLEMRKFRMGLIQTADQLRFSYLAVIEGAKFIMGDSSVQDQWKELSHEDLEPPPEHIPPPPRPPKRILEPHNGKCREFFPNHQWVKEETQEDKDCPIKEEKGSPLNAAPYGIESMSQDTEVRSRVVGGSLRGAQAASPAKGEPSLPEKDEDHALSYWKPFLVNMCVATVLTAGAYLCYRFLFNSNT
Sequence of His tagged PTPN2 (TC45) protein (P17706 other isoform, or with tags, fused parts or gaps): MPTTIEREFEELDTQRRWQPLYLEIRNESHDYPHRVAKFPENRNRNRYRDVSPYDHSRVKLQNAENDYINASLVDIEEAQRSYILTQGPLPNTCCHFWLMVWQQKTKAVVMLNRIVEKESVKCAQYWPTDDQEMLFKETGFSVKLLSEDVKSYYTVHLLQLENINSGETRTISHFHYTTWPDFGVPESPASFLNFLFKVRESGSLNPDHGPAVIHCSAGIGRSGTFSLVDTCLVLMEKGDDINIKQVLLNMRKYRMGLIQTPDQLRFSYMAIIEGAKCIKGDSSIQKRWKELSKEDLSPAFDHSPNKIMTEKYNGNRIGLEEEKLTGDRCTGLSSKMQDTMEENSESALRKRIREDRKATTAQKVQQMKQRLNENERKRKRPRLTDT

IC50 [1]	EC50 [3, 5]	EC50 [3, 6]	SMILES	IC50 [2, 4]	IC50 ([2]; enzyme 0.5 nM, substrate 2 μM)	Dihydrobenzofuran or Indoline x-fold>potency biochemical [2]	Dihydrobenzofuran or Indoline x-fold>potency cellular [3]
10 to 100 nM	1560 nM	1560 nM	CC(C)CCNC[C@H]1Cc2c(cc(O)c(N3CC(=O)NS3(=O)=O)c2F)N1 [Compound 139, 5-[(2R)-4-fluoro-6-hydroxy-2-{[(3-methylbutyl)amino]methyl}-2,3-dihydro-1H-indol-5-yl]-1λ^6,2,5-thiadiazolidine-1,1,3-trione]	19.8 nM	10 to 100 nM	0.8	4.5
10 to 100 nM	701 nM	701 nM	O=C1CN(c2c(O)cc3c(c2F)C[C@H](CNCCC(F)F)N3)S(=O)(=O)N1 [Compound 140, 5-[(2R)-2-{[(3,3-difluoropropyl)amino]methyl}-4-fluoro-6-hydroxy-2,3-dihydro-1H-indol-5-yl]-1λ^6,2,5-thiadiazolidine-1,1,3-trione]	15.2 nM	10 to 100 nM	0.6	5.1
10 to 100 nM	1140 nM	–	CCC(C)CNC[C@H]1Cc2c(cc(O)c(N3CC(=O)NS3(=O)=O)c2F)N1 (stereo partly drawn) [Compound 142, 5-[(2R)-4-fluoro-6-hydroxy-2-{[(2-methylbutyl)amino]methyl}-2,3-dihydro-1H-indol-5-yl]-1λ^6,2,5-thiadiazolidine-1,1,3-trione]	–	10 to 100 nM	–	–
10 to 100 nM	1970 nM	–	O=C1CN(c2c(O)cc3c(c2F)CC(CNCCCC(F)F)N3)S(=O)(=O)N1 (stereo not drawn) [Compound 145, 5-(2-{[(4,4-difluorobutyl)amino]methyl}-4-fluoro-6-hydroxy-2,3-dihydro-1H-indol-5-yl)-1λ^6,2,5-thiadiazolidine-1,1,3-trione]	–	10 to 100 nM	–	–
10 to 100 nM	1840 nM	–	O=C1CN(c2c(O)cc3c(c2F)C[C@H](CNCC2CC2)N3)S(=O)(=O)N1 [Compound 147, 5-[(2R)-2-{[(cyclopropylmethyl)amino]methyl}-4-fluoro-6-hydroxy-2,3-dihydro-1H-indol-5-yl]-1λ^6,2,5-thiadiazolidine-1,1,3-trione]	–	10 to 100 nM	–	–
10 to 100 nM	1850 nM	–	CCCC(C)NC[C@H]1Cc2c(cc(O)c(N3CC(=O)NS3(=O)=O)c2F)N1 (stereo partly drawn) [Compound 148, 5-[(2R)-4-fluoro-6-hydroxy-2-{[(pentan-2-yl)amino]methyl}-2,3-dihydro-1H-indol-5-yl]-1λ^6,2,5-thiadiazolidine-1,1,3-trione]	–	< 10 nM	–	–
10 to 100 nM	1560 nM	–	CC[C@@H](C)NC[C@H]1Cc2c(cc(O)c(N3CC(=O)NS3(=O)=O)c2F)N1 [Compound 149, 5-[(2R)-2-({[(2R)-butan-2-yl]amino}methyl)-4-fluoro-6-hydroxy-2,3-dihydro-1H-indol-5-yl]-1λ^6,2,5-thiadiazolidine-1,1,3-trione]	–	< 10 nM	–	–
10 to 100 nM	2180 nM	–	CCCCNC[C@H]1Cc2c(cc(O)c(N3CC(=O)NS3(=O)=O)c2F)N1 [Compound 150, 5-{(2R)-2-[(butylamino)methyl]-4-fluoro-6-hydroxy-2,3-dihydro-1H-indol-5-yl}-1λ^6,2,5-thiadiazolidine-1,1,3-trione]	–	10 to 100 nM	–	–
10 to 100 nM	2010 nM	–	CC(C)(C)CCNC[C@H]1Cc2c(cc(O)c(N3CC(=O)NS3(=O)=O)c2F)N1 [Compound 153, 5-[(2R)-2-{[(3,3-dimethylbutyl)amino]methyl}-4-fluoro-6-hydroxy-2,3-dihydro-1H-indol-5-yl]-1λ^6,2,5-thiadiazolidine-1,1,3-trione]	–	10 to 100 nM	–	–

Second part, the compound before the results:

SMILES	IC50 [1]	EC50 [3, 5]	EC50 [3, 6]	IC50 [2, 4]	IC50 ([2]; enzyme 0.5 nM, substrate 2 μM)	Dihydrobenzofuran or Indoline x-fold>potency biochemical [2]	Dihydrobenzofuran or Indoline x-fold>potency cellular [3]
O=C1CN(c2c(O)cc3c(c2F)C[C@H](CNCC2CCOCC2)N3)S(=O)(=O)N1 [Compound 138, 5-[(2R)-4-fluoro-6-hydroxy-2-({[(oxan-4-yl)methyl]amino}methyl)-2,3-dihydro-1H-indol-5-yl]-1λ^6,2,5-thiadiazolidine-1,1,3-trione]	10 to 100 nM	1560 nM	156000 nM	21.6 nM	10 to 100 nM	0.8	20.6
O=C1CN(c2c(O)cc3c(c2F)C[C@H](CNCCC(F)(F)F)N3)S(=O)(=O)N1 [Compound 141, 5-[(2R)-4-fluoro-6-hydroxy-2-{[(3,3,3-trifluoropropyl)amino]methyl}-2,3-dihydro-1H-indol-5-yl]-1λ^6,2,5-thiadiazolidine-1,1,3-trione]	10 to 100 nM	704 nM	–	–	10 to 100 nM	–	–
O=C1CN(c2c(O)cc3c(c2F)C[C@H](CNCC2CC(F)(F)C2)N3)S(=O)(=O)N1 [Compound 143, 5-[(2R)-2-({[(3,3-difluorocyclobutyl)methyl]amino}methyl)-4-fluoro-6-hydroxy-2,3-dihydro-1H-indol-5-yl]-1λ^6,2,5-thiadiazolidine-1,1,3-trione]	10 to 100 nM	1000 nM	–	–	10 to 100 nM	–	–
O=C1CN(c2c(O)cc3c(c2F)CC(CNCCC2COC2)N3)S(=O)(=O)N1 (stereo not drawn) [Compound 144, 5-[4-fluoro-6-hydroxy-2-({[2-(oxetan-3-yl)ethyl]amino}methyl)-2,3-dihydro-1H-indol-5-yl]-1λ^6,2,5-thiadiazolidine-1,1,3-trione]	> 100 nM	7180 nM	–	–	10 to 100 nM	–	–
O=C1CN(c2c(O)cc3c(c2F)C[C@H](CNCC2CCCC2)N3)S(=O)(=O)N1 [Compound 146, 5-[(2R)-2-{[(cyclopentylmethyl)amino]methyl}-4-fluoro-6-hydroxy-2,3-dihydro-1H-indol-5-yl]-1λ^6,2,5-thiadiazolidine-1,1,3-trione]	10 to 100 nM	1830 nM	–	–	10 to 100 nM	–	–
O=C1CN(c2c(O)cc3c(c2F)C[C@H](CO)N3)S(=O)(=O)N1 [Compound 151, 5-[(2R)-4-fluoro-6-hydroxy-2-(hydroxymethyl)-2,3-dihydro-1H-indol-5-yl]-1λ^6,2,5-thiadiazolidine-1,1,3-trione]	10 to 100 nM	2770 nM	–	–	10 to 100 nM	–	–
O=C1CN(c2c(O)cc3c(c2F)C[C@H](CNCCC2CC2)N3)S(=O)(=O)N1 [Compound 152, 5-[(2R)-2-{[(2-cyclopropylethyl)amino]methyl}-4-fluoro-6-hydroxy-2,3-dihydro-1H-indol-5-yl]-1λ^6,2,5-thiadiazolidine-1,1,3-trione]	10 to 100 nM	1170 nM	–	–	10 to 100 nM	–	–
CC(C)C1CC(CNC[C@H]2Cc3c(cc(O)c(N4CC(=O)NS4(=O)=O)c3F)N2)C1 (stereo partly drawn) [Compound 154, 5-{(2R)-4-fluoro-6-hydroxy-2-[({[3-(propan-2-yl)cyclobutyl]methyl}amino)methyl]-2,3-dihydro-1H-indol-5-yl}-1λ^6,2,5-thiadiazolidine-1,1,3-trione]	10 to 100 nM	1880 nM	–	–	< 10 nM	–	–
CC(C)CN(C)C[C@H]1Cc2c(cc(O)c(N3CC(=O)NS3(=O)=O)c2F)N1 [Compound 155, 5-[(2R)-4-fluoro-6-hydroxy-2-{[methyl(2-methylpropyl)amino]methyl}-2,3-dihydro-1H-indol-5-yl]-1λ^6,2,5-thiadiazolidine-1,1,3-trione]	10 to 100 nM	15700 nM	–	–	10 to 100 nM	–	–
